Results from BindingDB's records for doi:10.1021/acs.jnatprod.5b00104 (Peking Union Medical College, 2015).

Each compound was assayed against T1, X-box-binding protein 1 (Rattus norvegicus, UniProt Q9R1S4) (assay: ChEBML_1526682).
T1 sequence (Q9R1S4 whole entry): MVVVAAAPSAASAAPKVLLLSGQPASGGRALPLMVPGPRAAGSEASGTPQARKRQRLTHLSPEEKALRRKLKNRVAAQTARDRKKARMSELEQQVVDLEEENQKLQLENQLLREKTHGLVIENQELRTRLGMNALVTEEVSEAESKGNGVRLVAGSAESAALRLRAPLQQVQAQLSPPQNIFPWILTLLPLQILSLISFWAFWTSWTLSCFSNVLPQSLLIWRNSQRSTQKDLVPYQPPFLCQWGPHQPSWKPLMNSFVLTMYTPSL
From the text: Transactivation of XBP1 in rat IEC-6 cells after 48 hrs by dual luciferase reporter gene assay

Row | Compound | EC50
1 | C/C1=C/C[C@@H](O)[C@@]2(C)CC[C@@](C(C)C)(C[C@@H](O)[C@]3(C)CC[C@H]1O3)O2 | 340 nM
2 | CC(C)[C@@]12CC[C@@](C)(O1)[C@H](O)CC/C(C=O)=C/CC[C@@]1(C)O[C@@H]1C2 | 1140 nM
3 | C/C1=C\[C@@H](O)C[C@@]2(C)O[C@@H]2C[C@]2(C(C)C)CC[C@@](C)(O2)[C@H](O)CC1=O | 880 nM
4 | C/C1=C\CC[C@@]2(C)O[C@@H]2C[C@]2(C(C)C)CC[C@@](C)(O2)[C@H](O)CC1=O | 420 nM
